Source: patent US8741359B2, “Method for testing a substance which is potentially active in the field of lipolysis and its mainly cosmetic use” (BASF Beauty Care Solutions France S.A.S., priority 2001, dated 2014)

Assays:
lipoprotein lipase [1] = target: T1, lipoprotein lipase (Bos taurus, UniProt P11151); test: Inhibition of lipoprotein lipase, acellular in vitro model, NEFA determination with NEFA-C kit (colorimetry 550 nm); assay type: biochemical, bovine; settings: for Inhibition (%) Pure product diluted to a 1/100th / Inhibition (%) Pure product diluted to a 1/10,000th / Inhibition (%) Pure product: reference inhibitors; for Inhibition (%) Pure product: pure product at initial concentration (protamine sulphate 0.4%, protamine 2.4%, sodium pyrophosphate 6%)
T1 construct: The LPL used in the study model retained does in fact originate from bovine milk; from tissue; host or cells: bovine milk
T1 sequence (P11151 29-478): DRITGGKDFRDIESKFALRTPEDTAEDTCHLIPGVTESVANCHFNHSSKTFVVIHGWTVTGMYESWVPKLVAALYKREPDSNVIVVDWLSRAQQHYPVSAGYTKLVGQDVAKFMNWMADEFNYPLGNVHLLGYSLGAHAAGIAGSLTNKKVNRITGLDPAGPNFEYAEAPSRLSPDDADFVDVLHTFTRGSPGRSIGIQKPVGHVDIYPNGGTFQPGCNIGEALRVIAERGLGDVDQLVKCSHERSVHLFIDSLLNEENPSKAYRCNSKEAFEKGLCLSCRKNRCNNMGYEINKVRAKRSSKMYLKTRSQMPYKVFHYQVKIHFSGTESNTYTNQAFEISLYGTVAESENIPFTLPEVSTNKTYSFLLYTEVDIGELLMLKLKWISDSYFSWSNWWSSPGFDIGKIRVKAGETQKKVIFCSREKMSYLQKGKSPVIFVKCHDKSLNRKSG

lipoprotein lipase [2] = target: T1, lipoprotein lipase; test: Inhibition of lipoprotein lipase, released oleic acid determined by gas phase chromatography (GPC); assay type: biochemical, bovine; settings: for Inhibition Pure product diluted to a 1/100th: diluted 1/100th; for Inhibition Pure product diluted to a 1/10,000th: diluted 1/10,000th; for Inhibition Pure product: pure product at initial concentration (sodium pyrophosphate 6%, protamine sulphate 0.4%)
Experimental: LPL is an enzyme which has a significant affinity for its reaction product. The fatty acids released will in fact aggregate around the enzyme which will as it were be sequestered by the fatty acids and will therefore be no longer accessible to the substrate. […] II—Inhibition of the Lipoprotein Lipase:
The enzyme is incubated for a determined period of time in the presence of its inhibitor while the triolein is incubated in the presence of apoCII so as to mimic the situation encountered in vivo.
The triolein/ApoCII mixture is then incubated in the presence of the medium constituted by the enzyme±inhibitor.
For this, an oleic acid determination technique which enables the oleic acid at the end of the enzymatic reaction to be quantified, was developed.
The oleic acid is extracted from the reaction medium of the enzymatic determination with ethanol, and then injected onto a commercial column from DBJW scientific: reference DB FFAP, 15 m in length, 0.32 mm internal diameter, 0.25 μm thickness in splitless mode. The temperatures of the injector and of the detector are 280° C. The programming in temperature starts at 50° C. for 1 minute and then rises by 40° C./minute up to 200° C. and then by 15° C. par minute up to 250° C. for 3 minutes.

Inhibition (%) Pure product diluted to a 1/100th (lipoprotein lipase [1]; diluted 1/100th)	Inhibition (%) Pure product diluted to a 1/10,000th (lipoprotein lipase [1]; diluted 1/10,000th)	Inhibition (%) Pure product (lipoprotein lipase [1])	Inhibition Pure product diluted to a 1/100th (lipoprotein lipase [2])	Inhibition Pure product diluted to a 1/10,000th (lipoprotein lipase [2])	Inhibition Pure product (lipoprotein lipase [2])	Inhibition Pure product diluted to a 1/100th (lipoprotein lipase [1]; denaturing products, diluted 1/100th)	Inhibition Pure product diluted to a 1/10,000th (lipoprotein lipase [1]; denaturing products, diluted 1/10,000th)	Inhibition Pure product (lipoprotein lipase [1]; denaturing products, pure product)	Compound
2.6% ± 14.4	11.8% ± 14.7	10.1% ± 7.9	5.0% ± 9.6	27.7% ± 2.9	17.9% ± 17.5	–	–	–	Protamine sulphate
–	–	–	44.8% ± 10.6	0% ± 3.8	100% ± 1.8	11.4% ± 10.39	0% ± 9.8	98.3% ± 12.4	O=C(OC[C@H]1O[C@@H](OC(=O)c2cc(O)c(O)c(OC(=O)c3cc(O)c(O)c(O)c3)c2)[C@H](OC(=O)c2cc(O)c(O)c(OC(=O)c3cc(O)c(O)c(O)c3)c2)[C@@H](OC(=O)c2cc(O)c(O)c(OC(=O)c3cc(O)c(O)c(O)c3)c2)[C@@H]1OC(=O)c1cc(O)c(O)c(OC(=O)c2cc(O)c(O)c(O)c2)c1)c1cc(O)c(O)c(OC(=O)c2cc(O)c(O)c(O)c2)c1 [Tannic acid]
9.6% ± 5	8.5% ± 8.7	11.2% ± 6.6	–	–	–	–	–	–	Protamine

Compound	Inhibition (%) Pure product diluted to a 1/100th (lipoprotein lipase [1]; diluted 1/100th)	Inhibition (%) Pure product diluted to a 1/10,000th (lipoprotein lipase [1]; diluted 1/10,000th)	Inhibition (%) Pure product (lipoprotein lipase [1])	Inhibition Pure product diluted to a 1/100th (lipoprotein lipase [2])	Inhibition Pure product diluted to a 1/10,000th (lipoprotein lipase [2])	Inhibition Pure product (lipoprotein lipase [2])	Inhibition Pure product diluted to a 1/100th (lipoprotein lipase [1]; denaturing products, diluted 1/100th)	Inhibition Pure product diluted to a 1/10,000th (lipoprotein lipase [1]; denaturing products, diluted 1/10,000th)	Inhibition Pure product (lipoprotein lipase [1]; denaturing products, pure product)
O=P([O-])([O-])OP(=O)([O-])[O-].[Na+].[Na+].[Na+].[Na+] [Sodium pyrophosphate]	13% ± 12.5	0.4% ± 8.3	15% ± 12.6	30.4% ± 4.0	47.4% ± 10.4	35.1% ± 11.1	–	–	–
